Data on eleven compounds can be found in patent US20050042747A1, “Hivgp120-induced bob/gpr15 activation” (priority 2001, published 2005).

The nature of assay [1]: GalCer-gp120 interactions at the air-water interface (surface pressure). In kind it is binding. The note with it: gp120 5 nM in aqueous subphase. The procedure:
A monomolecular film of GalCer was prepared at the air-water interface and gp120 purified from either IIIB (full squares), SEN (open circles) or 89.6 (full circles) isolates was added in the aqueous subphase at a concentration of 5 nM. The kinetics of the surface pressure increase induced by the viral glycoproteins are shown.
(§1) Galactosylceramide with an α-hydroxylated fatty acid (referred to as GalCer throughout this study) was either prepared from bovine brain (Sigma) or purified from HT-29-D4 membrane rafts (Fantini et al., 2000a). The surface pressure was measured with a microtensiometer (Kibron Inc., Finland) specially designed for studying protein-lipid interactions (Fantini et al., 2000a). The experiments were carried at 25° C. out in a laboratory equipped with a filtered air supply. A solution of GalCer was prepared extemporaneously in hexane:chloroform:methanol, 11:5:4 (v:v:v) at a concentration of 1 mg/ml. The lipid was carefully spread onto the meniscus of a pure water subphase (800 μl). The proteic ligand (GPR15/Bob peptides or HIV-1 gp120) was injected into the subphase with a 10 μl Hamilton syringe. The surface pressure was continuously measured as a function of time until reaching equilibrium corresponding to the maximal surface presure increase (Δπmax) expressed in mN/m.
In a recent study, it was shown that the interaction between GalCer and gp120 purified from HIV-1(IIIB) was very efficient, whereas gp120s from 89.6 and SEN isolates interacted very weakly (Hammache et al., 1998). The kinetics of this interaction are an important physicochemical parameter allowing the direct comparison of GalCer recognition by various gp120s. In the experiment shown in FIG. 11, gp120 purified from IIIB, SEN, or 89.6 was injected underneath a monomolecular film of GalCer at the air-water interface. The GalCer film mimics the topology of a GalCer raft as it is organized in the external leaflet of the plasma membrane. For this reason, the Langmuir film balance technique is one of the most sensitive and reliable for studying protein-glycolipid interactions (Maggio et al., 1994). […] The surface increase indicates a condensing effect of the gp120 on the lipidic film due to its interaction with GalCer molecules (Hammache et al., 1998). […] At this time however, the level of interaction indicated by the absolute increase of the surface pressure was identical to the one of gp120(IIIB). […] The GalCer-binding capacity of gp120(SEN) was reevaluated and shown to occur much more slowly, but not less efficiently, than of gp120(IIIB).

In the next assay the test system is HT-29-D4 cells. Briefly: Transepithelial resistance (TEER) of differentiated HT-29-D4 cells. In kind it is cell-based, human. The note with it: electrophysiological medium.
Another assay has as its system HT-29 cells. Put plainly: Calcium signaling in HT-29 cells (Fluo 4, confocal microscope). In kind it is cell-based, human. As to the method: HT-29 cells (from ATCC) were grown in DMEM-F12 with 10% bovine calf serum, and were used 24-48 hours after plating. The Ghost (3) cells were obtained from the AIDS Research and Reference Reagent Program, and were grown DMEM with 10% bovine calf serum supplemented with 500 μg/ml G418, 100 μg/ml hygromycin, and 1 μg/ml puromycin.^27 These cells were used 24 to 96 hours after plating.
(§2) Calcium studies were done on HT-29 cells and Ghost (3) cells loaded with Fluo 4. The cells were placed in Locke's buffer containing 5 μg/ml Fluo 4 AM ester (Molecular Probes) for 20 to 30 minutes, then in Locke's buffer for an additional 30 minutes before testing. Various concentrations of gp120IIIB (X4 trophic), gp120CM235 (R5 trophic), gp120mN (X4 trophic), gp12093TH975 (nonsyncytium-inducing primary isolate from an asymptomatic subject, trophism undetermined but likely R5), and gp120SF2 (X4R5 trophic), ranging from 10 nM to less than 1 pM, were added in Locke's buffer.^6 The gp120 proteins were obtained from the AIDS Research Reagent Referral Program. Some HT-29 cells were given one of the following pretreatments: 50 μg/ml anti-Bob37 overnight, 1 μg/ml pertussis toxin overnight, or 4.6 μg/ml U73122 for one hour. With the HT-29 cells only, similar tests were also performed with SDF-1, MIP-1α, MIP-1β, and RANTES rather than gp120. The cells were visualized every 4 seconds in a confocal microscope, using 488 nm argon laser excitation and detection filters appropriate for fluorescein-like dyes.
(§3) For the first two or three days after plating, gp120 induces an immediate (within 4 seconds) calcium flux in undifferentiated HT-29 cells. The cells had previously been loaded with Fluo-4 AM ester (Molecular Probes, Eugene Oreg.) 5 micrograms/ml in the presence of Pleuronic F-127 0.02% in Locke's buffer for 30 minutes, then incubated at room temperature for an additional 30 minutes. Gp120IIIB was added while the cells were on an inverted confocal microscope using a 488 nm argon laser, with detection filters suitable for fluorescein-like dyes. […]

Assay [2] is described as follows: Interaction of synthetic Bob peptides with GalCer monolayer (surface pressure). In kind it is binding, human. Conditions: initial surface pressure 10 mN/m; at equilibrium; mean of three experiments ±SD. The procedure: Artificial membranes composed entirely of galactosyl ceramide with an alpha hydroxylated fatty acid were made. The surface pressure was measured with a microtensimeter (Kibron Inc., Finland) designed for the study of protein-lipid interactions. The peptides used for immunization were added to the subphase, and the surface pressure was continuously measured until equilibrium was reached. The increase in pressure was expressed in mN/m.
A monolayer of GalCer was prepared at the air-water interface at an initial surface pressure of 10 mN/m. The maximal surface surface pressure increase (Δπmax) reached at the equilibrium is indicated. The values are the mean of three separate experiments (±SD).
as §1

For assay [3], the system named is gp120-induced calcium signaling in HT-29 cells. Put plainly: Inhibition of gp120-induced calcium signaling in HT-29 cells. Type of assay: cell-based, human. Conditions: pretreatment. The procedure:
as §2
Blocking antibody experiments were done with HT-29 cells (monitoring calcium flux, microtubule loss, or transepithelial resistance), with Ghost (3) Bob cells (monitoring calcium flux) and peripheral blood mononuclear cells (monitoring calcium flux and HIV infection). Specifics of these protocols and the specific results are given herein. […] Antibody concentrations of 40 to 50 micrograms/ml overnight were needed for maximal effect.
as §3

Assay [4] has as its system peripheral blood mononuclear cells. Put plainly: gp120-induced calcium flux in peripheral blood mononuclear cells. In kind it is cell-based, human. Conditions: for inhibition of gp120IIIB-induced calcium flux, in words: pretreatment. The procedure: Normal human peripheral blood mononuclear cells were isolated by Ficoll gradient centrifugation, and loaded with the calcium sensitive dye Fluo-4. HIV gp120IIIB induced strong calcium fluxes in the range of 7 nM to 50 pM, and there was a weaker signal at 5 pM.
Experiments corresponding to those with HT-29 cells were done with peripheral blood mononuclear cells. These were isolated from the blood of a healthy, HIV-uninfected person by a Ficoll-Hypaque techique (Histopaque, Sigma), then loaded with Fluo-4 by a technique nearly identical to that used for HT-29 cells, except that Hank's buffer was used rather than Locke's, and the cells were centrifuged (2,000 g for 10 minutes) just before calcium flux measurements to improve adherence. Gp120-induced calcium fluxes were documented with as little as 5 pM gp120IIIB.

The target in a further assay is T1, Bob (Homo sapiens, UniProt P49685).
T1 construct: host or cells: Ghost (3) cells (human osteosarcoma, also transfected with CD4 and a GFP reporter)
T1 sequence (P49685 1-360): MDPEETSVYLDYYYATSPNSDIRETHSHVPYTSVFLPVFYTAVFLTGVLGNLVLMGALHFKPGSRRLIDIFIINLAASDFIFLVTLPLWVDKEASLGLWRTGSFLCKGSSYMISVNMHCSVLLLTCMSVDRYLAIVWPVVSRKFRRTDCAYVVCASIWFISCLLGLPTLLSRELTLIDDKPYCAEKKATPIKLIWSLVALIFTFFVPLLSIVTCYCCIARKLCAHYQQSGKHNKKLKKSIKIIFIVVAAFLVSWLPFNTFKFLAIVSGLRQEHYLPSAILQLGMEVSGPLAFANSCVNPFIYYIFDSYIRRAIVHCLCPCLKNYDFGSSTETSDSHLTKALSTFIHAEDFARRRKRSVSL
Briefly: gp120-induced calcium flux, Ghost (3) cells transfected with Bob (Fluo-4). Type of assay: cell-based. Set-up: key to minimal concentration of gp120 resulting in a significant calcium flux: — = no calcium flux seen at any dilution tested. As to the method:
as §2
(§4) Human osteosarcoma cell lines were transfected to express CD4, one or another of the HIV coreceptors, and a Green Fluorescent Protein reporter for active HIV infection, for the purpose of testing which of the known coreceptors was used to induce HIV infection by a given HIV strain (Morner A. J Virol 73:2343-9, 1999 and Deng K Nature 388:296-300, 1997). These cells were obtained from the AIDS Research and Reference Reagent Program, courtesy of Dr. Vineet KewalRamani and Dr. Dan Littman. These cells were grown in DMEM with 10% bovine calf serum supplemented with 0.5 mg/ml G418, 0.1 mg/ml hygromycin, and 1 microgram/ml puromycin, and were used at low passage number (less than 10). We have discovered that these cell lines are also activated by gp120 of certain viral strains, inducing a calcium flux in these cells.
Within 4 days of plating, coreceptor-transfected Ghost (3) cells (as well as the parent cell line not transfected to express any HIV coreceptors as a control) were put in Locke's medium, then treated with Fluo-4 (5 micrograms/ml for 30 minutes at 37° C.). After an additional 30 minute incubation in Locke's buffer at room temperature, the cells were examined in a confocal microscope while gp120 of various viral strains was added, and the cells were examined at 4 second intervals to look for a gp120-induced calcium flux. The results are given in the following table, expressed as the minimal concentration of gp120 resulting in a significant calcium flux. “−” means that no reproducible calcium flux was observed. “ND” means that the gp120 of that viral strain was not tested with the stated coreceptor.
These cells were treated with serial dilutions (100 or 250 nM to at least 1 pM, or even less if calcium fluxes were noted) of gp120. Gp120s from each of four HIV-1 strains: IIIB, CM235, SF2, and […] were used. Listed is the greatest dilution which induced a significant, reproducible calcium flux. The parental line is known to express CXCR4 at very low levels. Those results indicated by an asterisk are thought to represent this artifact.

The subject of assay [5] is Ghost (3) parental cell line. Put plainly: gp120-induced calcium flux, Ghost (3) parental cell line. Type of assay: cell-based, human. Set-up: key: — = no calcium flux seen at any dilution tested. The note with it: Ghost (3) parental line. As to the method: as §2, §4
(§5) Within 4 days of plating, coreceptor-transfected Ghost (3) cells (as well as the parent cell line not transfected to express any HIV coreceptors as a control) were put in Locke's medium, then treated with Fluo-4 (5 micrograms/ml for 30 minutes at 37° C.). After an additional 30 minute incubation in Locke's buffer at room temperature, the cells were examined in a confocal microscope while gp120 of various viral strains was added, and the cells were examined at 4 second intervals to look for a gp120-induced calcium flux. The results are given in the following table, expressed as the minimal concentration of gp120 resulting in a significant calcium flux. “−” means that no reproducible calcium flux was observed. “ND” means that the gp120 of that viral strain was not tested with the stated coreceptor. […]

For a further assay, the target named is T2, CXCR4 (Homo sapiens, UniProt P61073).
T2 construct: host or cells: Ghost (3) cells (human osteosarcoma, CD4+)
T2 sequence (P61073 whole entry): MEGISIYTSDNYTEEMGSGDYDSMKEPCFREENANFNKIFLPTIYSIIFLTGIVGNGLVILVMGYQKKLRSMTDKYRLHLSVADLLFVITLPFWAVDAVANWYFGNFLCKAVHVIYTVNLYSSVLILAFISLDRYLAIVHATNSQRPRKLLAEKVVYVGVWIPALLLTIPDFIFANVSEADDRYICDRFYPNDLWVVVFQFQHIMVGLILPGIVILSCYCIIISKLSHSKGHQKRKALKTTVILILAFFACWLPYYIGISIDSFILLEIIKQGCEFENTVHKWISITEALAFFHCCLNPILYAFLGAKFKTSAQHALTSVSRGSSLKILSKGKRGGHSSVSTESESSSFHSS
Briefly: gp120-induced calcium flux, Ghost (3) cells transfected with CXCR4. In kind it is cell-based. Further details: key: — = no calcium flux seen at any dilution tested. Conditions: Ghost (3) CXCR4 cells. The procedure: as §2, §4, §5

A further assay addresses T3, CCR5 (Homo sapiens, UniProt P51681).
T3 construct: host or cells: Ghost (3) cells (human osteosarcoma, CD4+)
Briefly: gp120-induced calcium flux, Ghost (3) cells transfected with CCR5. In kind it is cell-based. Set-up: key: — = no calcium flux seen at any dilution tested. Conditions: Ghost (3) CCR5 cells. The procedure:
as §2, §4, §5

“Also recorded” adds a separate entry of the source.

T3 sequence (P51681 whole entry): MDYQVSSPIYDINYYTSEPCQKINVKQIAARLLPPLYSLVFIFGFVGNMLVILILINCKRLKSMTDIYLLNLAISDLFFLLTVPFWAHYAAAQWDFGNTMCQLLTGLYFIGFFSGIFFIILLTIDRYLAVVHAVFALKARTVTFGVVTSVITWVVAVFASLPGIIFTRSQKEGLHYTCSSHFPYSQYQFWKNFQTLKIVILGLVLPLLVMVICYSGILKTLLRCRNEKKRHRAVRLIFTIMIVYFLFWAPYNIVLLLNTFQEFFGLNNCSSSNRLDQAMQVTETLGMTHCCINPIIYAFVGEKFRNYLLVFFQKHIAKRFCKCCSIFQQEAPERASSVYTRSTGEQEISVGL

On to “gp120(89.6): gp120 purified from primary isolate HIV-1(89.6)”, for which the “interaction with GalCer film, in words” value in assay [1] was “very little association with GalCer”. Moreover, in assay [1], the “maximal surface pressure increase relative to IIIB and SEN” value is listed as “less than 50%”. The “TEER response, in words” value was “not observed” in the assay with HT-29-D4 cells and “totally inactive” in the assay with HT-29-D4 cells (listed as gp120 from 89.6). On to “SDF-1: natural ligand of CXCR4 [reference compound]”, for which the “calcium signaling in HT-29 cells, in words” value in the assay with HT-29 cells is listed as “substantial calcium signal; also recorded: induced similar calcium signaling”. “RELTLIDDKPYCAEKKAT [P5, Bob peptide, second extracellular loop]” came in with a Δπ max in assay [2] of 6.86 ± 1.37 mN/m.

As to `COc1ccc2c(c1)CC[C@@H]1[C@@H]2CC[C@]2(C)[C@@H](NCCCCCCN3C(=O)CCC3=O)CC[C@@H]12` [U73343], the “inhibition of gp120-induced calcium signaling, in words” value in assay [3] is “no inhibitory effect and not”. On to heparin, for which, in assay [4] (15 minute preincubation of gp120IIIB with 40 micrograms/ml at 0-4° C., 200 nM gp120IIIB), the “inhibition of gp120IIIB-induced calcium flux” value was determined as 40 fold. The “inhibition of gp120IIIB-induced calcium flux, in words” value in [4] is on record as “Inhibition”; in assay [4] (listed as sodium heparin), “inhibited the calcium flux”. With “gp120MN: gp120 of HIV strain MN (X4 trophic)”, the “minimal concentration of gp120 resulting in a significant calcium flux” value with Bob (Ghost (3) Bob cells, 100 or 250 nM to at least 1 pM) was “—”; in [5], “—”; with CXCR4, “—”; with CCR5, “—”. In addition, the “Bob activation / calcium signals in Bob-transfected Ghost (3) cells, in words” value in the assay with Bob (listed as MN) is on record as “do not activate Bob; also recorded: did not cause calcium signals”. In assay [2], “SGLRQEHYLPSAILQ [P4, Bob peptide, third extracellular loop]” displayed a Δπ max of 5.21 ± 1.06 mN/m.

With “HAEDFARRRKRSVSL [P1, Bob peptide, internal C-ter domain]”, in assay [2], the Δπ max turned out to be 1.89 ± 0.85 mN/m.

As for “MDPEETSVYLDYYYATS [P3, Bob peptide, extracellular N-ter end]”, the Δπ max in assay [2] is listed as 2.26 ± 0.12 mN/m. As to “KNYDFGSSTETSDSHLTK [P6, Bob peptide, internal C-ter domain]”, in assay [2], the Δπ max was 2.67 ± 0.40 mN/m. On to “DKEASLGLWRTGSFLCK [P2, Bob peptide, first extracellular loop]”, for which the Δπ max in assay [2] is 5.40 ± 1.52 mN/m.
